Assay results taken from ChEMBL document CHEMBL4393720, “Design, synthesis and biological evaluation of bromophenol-thiazolylhydrazone hybrids inhibiting the interaction of translation initiation factors eIF4E/eIF4G as multifunctional agents for cancer treatment” (Eur J Med Chem, 2019).
Activity calls are given as the source filed them. No cut-off for these calls is given here.

Key:
A549 [1] = test: Induction of autophagy in human A549 cells assessed as change in […] expression at 1 to 5 uM incubated for 48 hrs by Western blot analysis; type: functional, cell-based
[2] = target: Eukaryotic translation initiation factor 4E (Homo sapiens) (UniProt P06730); test: Inhibition of eIF4E phosphorylation in human A549 cells incubated for 48 hrs by immunofluorescence method; type: cell-based
A549 [3] = test: Antitumor activity against human A549 cells xenografted in athymic nude mouse assessed as necrosis of tumor cells and loosely packed cells at 25 to 50 mg/kg, ip administered once daily for 21 days by hematoxylin and eosin staining based microscopic analysis; type: functional, organism-based
[4] = Half life in female Sprague-Dawley rat at 10 mg/kg, po measured up to 24 hrs by LC/MS-MS analysis; type: ADME, organism-based; settings: in vivo
[5] = Half life in male Sprague-Dawley rat at 2 mg/kg, iv measured up to 24 hrs by LC/MS-MS analysis; type: ADME, organism-based; settings: in vivo
A549 [6] = test: In vivo inhibition of PI3K/Akt/mTOR signalling pathway in human A549 cells xenografted in athymic nude mouse assessed as decrease in phosphorylation of PI3K at 25 to 50 mg/kg, ip administered once daily for 21 days by Western blot analysis; type: functional, organism-based
[7] = Inhibition of PI3K/Akt/mTOR in human A549 cells assessed as increase in eIF4E/4EBP1 interaction incubated for 48 hrs by m7GTP pull down assay; type: cell-based
U-87 MG = test: Antiproliferative activity against human U87MG cells assessed as inhibition of cell growth incubated for 48 hrs by MTT assay; type: functional, cell-based, U-87MG ATCC
A549 [8] = test: Inhibition of eIF4E/eIF4G interaction in human A549 cells incubated for 48 hrs by m7GTP pull down assay; type: cell-based
[9] = Tmax in male Sprague-Dawley rat at 2 mg/kg, iv measured up to 24 hrs by LC/MS-MS analysis; type: ADME, organism-based; settings: in vivo
[10] = AUC (0 to 24 hrs) in male Sprague-Dawley rat at 10 mg/kg, po measured up to 24 hrs by LC/MS-MS analysis; type: ADME, organism-based; parameters: time < 24 hr, dose 10 mg/kg, route oral; settings: in vivo
A549 [11] = test: Decrease in phosphorylation of Ki67 in human A549 cells xenografted in athymic nude mouse at 25 to 50 mg/kg, ip administered once daily for 21 days by immunocytochemistry; type: functional, organism-based
[12] = AUC (0 to 24 hrs) in female Sprague-Dawley rat at 10 mg/kg, po measured up to 24 hrs by LC/MS-MS analysis; type: ADME, organism-based; parameters: time < 24 hr, dose 10 mg/kg, route oral; settings: in vivo
[13] = Acute toxicity in SPF Kunming mouse assessed as body weight at 2000 mg/kg, po administered as single dose measured at day 7 (reference value: 30.2g); type: organism-based; settings: in vivo
[14] = Volume of distribution in Sprague-Dawley rat at 2 mg/kg, iv measured up to 24 hrs by LC/MS-MS analysis; type: ADME, organism-based; settings: in vivo
[15] = MRT in male Sprague-Dawley rat at 2 mg/kg, iv measured up to 24 hrs by LC/MS-MS analysis; type: ADME, organism-based; settings: in vivo
[16] = MRT in female Sprague-Dawley rat at 10 mg/kg, po measured up to 24 hrs by LC/MS-MS analysis; type: ADME, organism-based; settings: in vivo
[17] = Toxicity in athymic nude mouse xenografted with human A549 cells assessed as effect on spleen morphological changes at 25 to 50 mg/kg, ip administered once daily for 21 days by H and E staining based assay; type: organism-based; settings: in vivo, 504 h
A549 [18] = test: Antitumor activity against human A549 cells xenografted in athymic nude mouse assessed as decrease in tumor growth at 25 mg/kg, ip administered once daily for 21 days; type: functional; settings: 504 h
A549 [19] = test: Induction of mitochondrial membrane potential loss in human A549 cells at 1 to 5 uM incubated for 48 hrs by JC-1 staining based flow cytometer analysis; type: functional, cell-based
[20] = Inhibition of PI3K/Akt/mTOR signalling pathway in human A549 cells assessed as reduction in Akt phosphorylation at 1 to 5 uM incubated for 48 hrs by Western blot analysis; type: cell-based
[21] = Oral bioavailability in male Sprague-Dawley rat at 10 mg/kg measured up to 24 hrs by LC/MS-MS analysis; type: ADME, organism-based; settings: in vivo
HepG2 = test: Antiproliferative activity against human HepG2 cells assessed as inhibition of cell growth incubated for 48 hrs by MTT assay; type: functional, cell-based; settings: HepG2, 48 h
[22] = Volume of distribution in steady state in female Sprague-Dawley rat at 2 mg/kg, iv measured up to 24 hrs by LC/MS-MS analysis; type: ADME, organism-based; settings: in vivo, read-out: Vdss
A549 [23] = test: Inhibition of eIF4E/eIF4G interaction in human A549 cells at 2.5 uM incubated for 24 hrs by proximity ligation assay; type: cell-based
[24] = Cmax in male Sprague-Dawley rat at 10 mg/kg, po measured up to 24 hrs by LC/MS-MS analysis; type: ADME, organism-based; parameters: dose 10 mg/kg, route oral; settings: in vivo
[25] = Half life in female Sprague-Dawley rat at 2 mg/kg, iv measured up to 24 hrs by LC/MS-MS analysis; type: ADME, organism-based; settings: in vivo
[26] = Inhibition of PI3K/Akt/mTOR signalling pathway in human A549 cells assessed as reduction in mTOR phosphorylation at 1 to 5 uM incubated for 48 hrs by Western blot analysis; type: cell-based
[27] = Inhibition of PI3K/Akt/mTOR signalling pathway in human A549 cells assessed as reduction in PI3K phosphorylation at 1 to 5 uM incubated for 48 hrs by Western blot analysis; type: cell-based
A549 [28] = test: Induction of apoptosis in human A549 cells at 2.5 uM incubated for 48 hrs in presence of pan caspase inhibitor, Z-VAD-FMK by annexin-V and propidium iodide staining based flow cytometric analysis; type: functional, cell-based
A549 [29] = test: In vivo inhibition of PI3K/Akt/mTOR in human A549 cells xenografted in athymic nude mouse assessed as decrease in phosphorylation of 4EBP1 at 25 to 50 mg/kg, ip administered once daily for 21 days by immunocytochemistry; type: functional, organism-based
[30] = Toxicity in athymic nude mouse xenografted with human A549 cells assessed as effect on kidney morphological changes at 25 to 50 mg/kg, ip administered once daily for 21 days by H and E staining based assay; type: organism-based; settings: in vivo, 504 h
[31] = Inhibition of PI3K/AKT/mTOR in human A549 cells assessed as decrease in 4EBP1 phosphorylation at 1 to 5 uM incubated for 48 hrs by western blot analysis; type: cell-based
A549 [32] = test: Antitumor activity against human A549 cells xenografted in athymic nude mouse assessed as decrease in tumor growth at 50 mg/kg, ip administered once daily for 21 days; type: functional; settings: 504 h
[33] = Subacute toxicity in SPF Kunming mouse assessed as mortality at 2000 mg/kg, po administered once a day for 14 days; type: organism-based; settings: in vivo, 336 h
A549 [34] = test: In vivo inhibition of PI3K/Akt/mTOR signalling pathway in human A549 cells xenografted in athymic nude mouse assessed as decrease in phosphorylation of mTOR at 25 to 50 mg/kg, ip administered once daily for 21 days by Western blot analysis; type: functional, organism-based
A549 [35] = test: Induction of apoptosis in human A549 cells assessed as increase in Bax level at 1 to 5 uM incubated for 48 hrs by Western blot analysis; type: functional, cell-based

Sequence of Eukaryotic translation initiation factor 4E (Homo sapiens) (P06730 whole entry): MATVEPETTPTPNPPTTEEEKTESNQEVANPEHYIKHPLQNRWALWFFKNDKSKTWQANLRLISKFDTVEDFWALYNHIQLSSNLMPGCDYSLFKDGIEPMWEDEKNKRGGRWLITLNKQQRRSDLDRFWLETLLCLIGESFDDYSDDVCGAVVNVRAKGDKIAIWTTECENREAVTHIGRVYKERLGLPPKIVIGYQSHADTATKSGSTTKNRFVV

SMILES: Fc1ccc(/C=N/Nc2nc(-c3ccc(C(F)(F)F)cc3)cs2)cc1F
- Activity (A549 [1]): Active
- inhibition [2]: Active
- Activity (A549 [3]): Active
- half-life [4]: 67.2 min
- half-life [5]: 170 min
- inhibition (A549 [6]): Active
- Activity [7]: Active
- IC50 (U-87 MG): 29.9 µM
- inhibition (A549 [8]): Active
- Tmax [9]: 2 h
- AUC(0-t) at 24 h [10]: 5.34 µM·h
- inhibition (A549 [11]): Active
- AUC(0-t) at 24 h [12]: 8.25 µM·h
- Activity [13]: 29.9 g
- Vd [14]: 0.67 L/kg
- MRT [15]: 4.42 h
- MRT [16]: 1.62 h
- Activity [17]: Non-Toxic
- inhibition in vivo at 25 mg/kg (A549 [18]): 62%
- Activity (A549 [19]): Active
- inhibition [20]: Active
- bioavailability [21]: 17.2%
- IC50 (HepG2): 14.5 µM
- Vd [22]: 0.19 L/kg
- inhibition (A549 [23]): Active
- Cmax [24]: 650 nM
- half-life [25]: 195 min
- inhibition [26]: Active
- inhibition [27]: Active
- Activity (A549 [28]): inactive
- inhibition (A549 [29]): Active
- Activity [30]: Non-Toxic
- inhibition [31]: Active
- inhibition in vivo at 50 mg/kg (A549 [32]): 75%
- Activity [33]: Non-Toxic
- inhibition (A549 [34]): Active
- Activity (A549 [35]): Active
